We go through 48 compounds from patent US9193731B2, “Antimicrobial compounds and methods of making and using the same” (Melinta Therapeutics, Inc., priority 2009, dated 2015).

Usually MIC stands for the smallest concentration in the dilution series that meets the test's criterion for growth inhibition.

The subject of the assay is Escherichia coli strain ATCC25922. Briefly: standard microdilution assay to determine minimum inhibitory concentrations (MICs). The assay is classed as cell-based. Particulars: for E. coli ATCC25922 MIC: Escherichia coli strain ATCC25922, microdilution; for MIC: Escherichia coli, ATCC25922, Escherichia coli strain ATCC25922, microdilution, read-out: E. coli ATCC25922 MIC. Summed up:
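Broth microdilution MIC against E. coli ATCC25922, following CLSI protocols, typically in a 100 microliter final volume. Results reported as +/− relative to a 16 micrograms/ml cutoff.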
For orientation: In broth dilution the organism is exposed to a series of concentrations in liquid medium.

With `N=C(N)NCCCNCc1ccc(-n2cc3cc(-c4cccc(CCCCN)c4)[nH]c3nc2=O)cc1` [Compound 1380], the “E. coli ATCC25922 MIC” value was “+ (a “+” indicates that the compound has an MIC value of 16 micrograms/ml or less)”.

`CC1CN(S(=O)(=O)c2ccc(-c3cc4cn(-c5ccc(CNCCCN)cc5)c(=O)nc4[nH]3)cc2)CC(C)N1` (stereo not drawn) [Compound 853]: the “E. coli ATCC25922 MIC” value is given as “+ (a “+” indicates that the compound has an MIC value of 16 micrograms/ml or less)”.

For `NCCCN(CCCN)Cc1ccc(-n2cc3cc(-c4ccc(S(=O)(=O)NC5CN6CCC5CC6)cc4)[nH]c3nc2=O)cc1` (stereo not drawn) [Compound 201], the MIC is less than 16 µg/mL.

On to `CN(C)CCCOc1cccc(-c2cc3cn(-c4ccc(CN)cc4)c(=O)nc3[nH]2)c1` [Compound 1113], for which the MIC was greater than 16 µg/mL.

`N=C(N)NCCCNC(=O)c1ccc(-n2cc3cc(-c4ccc(S(=O)(=O)N(CCOc5ccc(F)cc5)C5CCNCC5)cc4)[nH]c3nc2=O)cc1` [Compound 1093]: the “E. coli ATCC25922 MIC” value was “+ (a “+” indicates that the compound has an MIC value of 16 micrograms/ml or less)”.

Consider `N=C(N)NCCCNCc1ccc(-n2cc3cc(-c4ccc(S(=O)(=O)NC5CCN(CCF)CC5)cc4)[nH]c3nc2=O)cc1` [Compound 943], for which the “E. coli ATCC25922 MIC” value is recorded as “+ (a “+” indicates that the compound has an MIC value of 16 micrograms/ml or less)”.

For the compound `NCc1ccc(-n2cc3cc(-c4ccc(S(=O)(=O)NC5CCNCC5)c(Cl)c4)[nH]c3nc2=O)cc1F` [Compound 272], the MIC is greater than 16 µg/mL.

Take `N=C(N)NCCCNC(=O)c1ccc(-n2cc3cc(-c4ccc(S(=O)(=O)NC5CCNCC5)cc4)[nH]c3nc2=O)cc1` [Compound 893]: the “E. coli ATCC25922 MIC” value was “+ (a “+” indicates that the compound has an MIC value of 16 micrograms/ml or less)”.

On to `CN1C2CCC1CC(NC(=O)c1ccc(-c3cc4cn(-c5ccc(CN(CCCN)CCCN)cc5)c(=O)nc4[nH]3)cc1)C2` (stereo not drawn) [Compound 206], for which the MIC was less than 16 µg/mL.

For `CNCc1ccc(-n2cc3cc(-c4ccc(S(=O)(=O)N(CCCN5CCCC(O)C5)C5CCNCC5)cc4)[nH]c3nc2=O)cc1` (stereo not drawn) [Compound 1079], the MIC is greater than 16 µg/mL.

`N=C(N)NCCCNCc1ccc(-c2cn3cc(-c4ccc(C(=O)N5CCNC(=O)C5)cc4)[nH]c3nc2=O)cc1` [Compound 693]: the MIC is less than 16 µg/mL.

As to `NCCCNCc1ccc(-n2cc3cc(CCS(=O)(=O)N(CC4CCOCC4)C4CCNCC4)[nH]c3nc2=O)cc1` [Compound 923], the minimal inhibitory concentration (MIC) was less than 16 µg/mL.

In the case of `N=C(N)NCCCN1CC=C(n2cc3cc(-c4ccc(S(=O)(=O)N(Cc5ccc6nonc6c5)C5CCNCC5)cc4)[nH]c3nc2=O)CC1` [Compound 1004], the “E. coli ATCC25922 MIC” value is given as “+ (a “+” indicates that the compound has an MIC value of 16 micrograms/ml or less)”.

For the compound `Cc1cc(-n2cc3cc(-c4cccc(OCCCN)c4)[nH]c3nc2=O)ccc1CNCCCNC(=N)N` [Compound 1280], the “E. coli ATCC25922 MIC” value was “+ (a “+” indicates that the compound has an MIC value of 16 micrograms/ml or less)”.

As for `NCCCCOc1ccc(-c2cn3cc(-c4ccc(Br)cc4)[nH]c3nc2=O)cc1` [Compound 810], the MIC was greater than 16 µg/mL.

Turning to `CN1CCN(c2cccc(-c3cc4cn(-c5ccc(CNCCCN)cc5)c(=O)nc4[nH]3)c2)CC1` [Compound 677], the MIC was less than 16 µg/mL.

Consider `CN(C)C1CCN(c2cccc(-c3cc4cn(-c5ccc(CNCCCN)cc5)c(=O)nc4[nH]3)c2)CC1` [Compound 665], for which the MIC was less than 16 µg/mL.

On to `NCc1ccc(-n2cc3cc(-c4ccc(S(=O)(=O)NC5CCNCC5)c(Cl)c4)[nH]c3nc2=O)cc1` [Compound 245], for which the MIC is greater than 16 µg/mL.

In the case of `N=C(N)NOCCNCc1ccc(-n2cc3cc(-c4ccc(S(=O)(=O)NC5CCNCC5)cc4)[nH]c3nc2=O)cc1` [Compound 1102], the “E. coli ATCC25922 MIC” value was “+ (a “+” indicates that the compound has an MIC value of 16 micrograms/ml or less)”.

As to `N=C(N)NCCCNCc1ccc(-n2cc3cc(-c4cc(C(=O)Nc5ccc(F)cn5)cc(N5CCNCC5)c4)[nH]c3nc2=O)cc1` [Compound 994], the “E. coli ATCC25922 MIC” value is “+ (a “+” indicates that the compound has an MIC value of 16 micrograms/ml or less)”.

For `CS(=O)(=O)Cc1cc(CCCCN)cc(-c2cc3cn(-c4ccc(CNCCCNC(=N)N)cc4)c(=O)nc3[nH]2)c1` [Compound 2088a], the “E. coli ATCC25922 MIC” value was “+ (a “+” indicates that the compound has an MIC value of 16 micrograms/ml or less)”.

As for `NCCCCCN1CCC(n2cc3cc(-c4ccc(F)cc4)[nH]c3nc2=O)C1` (stereo not drawn) [Compound 560], the MIC is greater than 16 µg/mL.

On to `N=C(N)NCCCNCc1ccc(-n2cc3cc(-c4ccc(S(=O)(=O)N(CC5CN(Cc6ccccc6)CCO5)C5CCNCC5)cc4)[nH]c3nc2=O)cc1` (stereo not drawn) [Compound 988], for which the “E. coli ATCC25922 MIC” value is listed as “+ (a “+” indicates that the compound has an MIC value of 16 micrograms/ml or less)”.

As to `N=C(N)NCCCNCc1ccc(-c2cn3cc(-c4ccc(C(=O)N5CC6CC5CN6)cc4)[nH]c3nc2=O)cc1` (stereo not drawn) [Compound 745], the MIC was less than 16 µg/mL.

Consider `N=C(N)NCCCNCc1ccc(-c2cn3cc(-c4ccc(C(=O)NC5CN6CCC5CC6)cc4)[nH]c3nc2=O)cc1` (stereo not drawn) [Compound 778], for which the MIC is less than 16 µg/mL.

Turning to `NC(=O)c1ccc(-n2cc3cc(-c4ccc(S(=O)(=O)N(Cc5cc(OC(F)(F)F)ccc5F)C5CCNCC5)cc4)[nH]c3nc2=O)cc1` [Compound 1115], the “E. coli ATCC25922 MIC” value was “− (a “−” indicates that the compound has an MIC value greater than 16 micrograms/ml)”.

In the case of `NCCCNC(=O)CCn1cc2cc(-c3ccc(S(=O)(=O)N[C@@H]4CCCNC4)cc3)[nH]c2nc1=O` [Compound 1287], the MIC is greater than 16 µg/mL.

For the compound `N=C(N)NCCCNCc1ccc(-n2cc3cc([C@@H]4C[C@@H](N)[C@@H](CO)O4)[nH]c3nc2=O)cc1` [Compound 1267], the MIC was less than 16 µg/mL.

Regarding `N=C(N)NCCCNCc1ccc(-n2cc3cc(CN4CCS(=O)(=O)CC4)[nH]c3nc2=O)cc1` [Compound 628], the minimum inhibitory concentration (MIC) was greater than 16 µg/mL.

As to `N=C(N)NCCCNCc1ccc(-n2cc3cc(-c4cc(C(=O)N5Cc6ccccc6C5)cc(N5CCNCC5)c4)[nH]c3nc2=O)cc1` [Compound 981], the “E. coli ATCC25922 MIC” value was “+ (a “+” indicates that the compound has an MIC value of 16 micrograms/ml or less)”.

Consider `N=C(N)NC1CCN(Cc2ccc(-n3cc4cc(-c5ccc(S(=O)(=O)N(Cc6ccncc6)C6CCNCC6)cc5)[nH]c4nc3=O)cc2)C1` (stereo not drawn) [Compound 1178], for which the “E. coli ATCC25922 MIC” value is listed as “+ (a “+” indicates that the compound has an MIC value of 16 micrograms/ml or less)”.

`CNCc1ccc(-n2cc3cc(-c4ccc(S(=O)(=O)N(CCCc5cccc(OC)c5)C5CCNCC5)cc4)[nH]c3nc2=O)cc1` [Compound 1034]: the MIC was greater than 16 µg/mL.

Turning to `N=C(N)NCCCNCc1ccc(-n2cc3cc(-c4cc(CCCCN)cc(C(N)=O)c4)[nH]c3nc2=O)cc1` [Compound 2069a], the “E. coli ATCC25922 MIC” value was “+ (a “+” indicates that the compound has an MIC value of 16 micrograms/ml or less)”.

Regarding `N=C(N)NCCCNCc1ccc(-n2cc3cc(-c4ccc(S(=O)(=O)N(Cc5cc(-c6ccc(Cl)cc6)on5)C5CCNCC5)cc4)[nH]c3nc2=O)cc1` [Compound 803], the “E. coli ATCC25922 MIC” value is on record as “+ (a “+” indicates that the compound has an MIC value of 16 micrograms/ml or less)”.

On to `N=C(N)NCCCNCc1ccc(-n2cc3cc(C4CCCNC4)[nH]c3nc2=O)cc1` (stereo not drawn) [Compound 1210], for which the MIC is less than 16 µg/mL.

On to `Cc1cc(F)cc(CN(C2CCNCC2)S(=O)(=O)c2ccc(-c3cc4cn(-c5ccc(CN(CCCN)CCCN)cc5)c(=O)nc4[nH]3)cc2)c1` [Compound 237], for which the minimal inhibitory concentration (MIC) is less than 16 µg/mL.

`NCCCNCc1ccc(-n2cc3cc(CCS(=O)(=O)NC4CCNCC4)[nH]c3nc2=O)cc1` [Compound 881]: the MIC was less than 16 µg/mL.

Take `NCc1ccc(-n2cc3cc(-c4ccc(S(=O)(=O)N(CCCN5CCCC(O)C5)C5CCNCC5)cc4)[nH]c3nc2=O)cc1` (stereo not drawn) [Compound 1092]: the “E. coli ATCC25922 MIC” value is reported as “− (a “−” indicates that the compound has an MIC value greater than 16 micrograms/ml)”.

Consider `NCCCNCc1ccc(-n2cc3cc(-c4ccc([C@H]5OC(=O)N[C@@H]5CO)cc4)[nH]c3nc2=O)cc1` [Compound 939], for which the MIC is greater than 16 µg/mL.

For the compound `N=C(N)NCCCNCc1ccc(-n2cc3cc(-c4cccc(S(=O)(=O)N(CCn5ccnc5)C5CCNCC5)c4)[nH]c3nc2=O)cc1` [Compound 1159], the MIC was less than 16 µg/mL.

As to `N=C(N)NCCCNCc1ccc(-n2cc3cc(-c4ccc(S(=O)(=O)N(CCCn5ccc(C(F)(F)F)n5)C5CCNCC5)cc4)[nH]c3nc2=O)cc1` [Compound 934], the “E. coli ATCC25922 MIC” value is reported as “+ (a “+” indicates that the compound has an MIC value of 16 micrograms/ml or less)”.

As for `N=C(N)NCCCNCc1ccc(-n2cc3cc(-c4ccc(S(=O)(=O)N5CC(N)C5)cc4)[nH]c3nc2=O)cc1` [Compound 1459], the “E. coli ATCC25922 MIC” value is given as “+ (a “+” indicates that the compound has an MIC value of 16 micrograms/ml or less)”.

As for `N[C@H]1CCCN(Cc2ccc(-n3cc4cc[nH]c4nc3=O)cc2)C1` [Compound 1156], the MIC was greater than 16 µg/mL.

`NCCCNCc1ccc(-c2cn3cc(-c4ccc(C(=O)N5CC[C@@H](F)C5)cc4)[nH]c3nc2=O)cc1` [Compound 668]: the MIC was greater than 16 µg/mL.

`N=C(N)NCCCNCc1ccc(-n2cc3cc(-c4ccc(S(=O)(=O)N(Cc5ccc(Cl)c(SC(F)(F)F)c5)C5CCNCC5)cc4)[nH]c3nc2=O)cc1` [Compound 759]: the “E. coli ATCC25922 MIC” value is “+ (a “+” indicates that the compound has an MIC value of 16 micrograms/ml or less)”.

Consider `NC(N)=NCCC(=O)NCc1ccc(-n2cc3cc(-c4ccc(S(=O)(=O)N(Cc5ccccc5SC(F)(F)F)C5CCNCC5)cc4)[nH]c3nc2=O)cc1` [Compound 1205], for which the “E. coli ATCC25922 MIC” value is “− (a “−” indicates that the compound has an MIC value greater than 16 micrograms/ml)”.

Consider `N=C(N)NCCCNCc1ccc(-n2cc3cc(C4CCN(CC(O)CN)C4)[nH]c3nc2=O)cc1` (stereo not drawn) [Compound 1456], for which the “E. coli ATCC25922 MIC” value was “+ (a “+” indicates that the compound has an MIC value of 16 micrograms/ml or less)”.

For `N=C(N)NCCCNCc1ccc(-c2cn3cc(CCc4cccc(OC(F)(F)F)c4)[nH]c3nc2=O)cc1` [Compound 975], the “E. coli ATCC25922 MIC” value is “− (a “−” indicates that the compound has an MIC value greater than 16 micrograms/ml)”.
